Measured values published in patent publication US10711004B2 (Genentech, Inc., priority 2018, dated 2020).
Like-named read-outs stand apart in the source and are kept apart here.

Target: human TRPA1 channel (Homo sapiens (Human), UniProt O75762)
Assay: hTRPA1 CHO Ca2+ FLIPR Tetra assay, block of cinnamaldehyde induced calcium influx
Type: cell-based
Conditions: for IC50: CHO cells expressing TRPA1, Hill coefficient fixed to 1.5; for TRPA1 IC50 compared with 3-azabicyclo[3.1.0]hexene linker and cyclobutylene linker analogues: bicyclo[3.1.0]hexene linker compounds versus same-substituent analogues (compounds 16, 191; 26, 1)
Method in brief: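 Calcium-dye-loaded TRPA1-expressing CHO cells in HBSS/20 mM HEPES pH 7.4, 0.02% BSA were preincubated with compound for 10 or 90 min at room temperature. Calcium influx evoked by roughly an EC50 concentration of cinnamaldehyde was then read on FLIPR Tetra; IC50 came from curve fits with a fixed Hill coefficient.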

[1] = read-out: hTRPA1 IC50 (10 min), compounds incubated 10 minutes at room temperature before cinnamaldehyde agonist
[2] = read-out: hTRPA1 IC50 (90 min), compounds incubated 90 minutes at room temperature before cinnamaldehyde agonist

Chain of human TRPA1 channel (O75762 whole entry): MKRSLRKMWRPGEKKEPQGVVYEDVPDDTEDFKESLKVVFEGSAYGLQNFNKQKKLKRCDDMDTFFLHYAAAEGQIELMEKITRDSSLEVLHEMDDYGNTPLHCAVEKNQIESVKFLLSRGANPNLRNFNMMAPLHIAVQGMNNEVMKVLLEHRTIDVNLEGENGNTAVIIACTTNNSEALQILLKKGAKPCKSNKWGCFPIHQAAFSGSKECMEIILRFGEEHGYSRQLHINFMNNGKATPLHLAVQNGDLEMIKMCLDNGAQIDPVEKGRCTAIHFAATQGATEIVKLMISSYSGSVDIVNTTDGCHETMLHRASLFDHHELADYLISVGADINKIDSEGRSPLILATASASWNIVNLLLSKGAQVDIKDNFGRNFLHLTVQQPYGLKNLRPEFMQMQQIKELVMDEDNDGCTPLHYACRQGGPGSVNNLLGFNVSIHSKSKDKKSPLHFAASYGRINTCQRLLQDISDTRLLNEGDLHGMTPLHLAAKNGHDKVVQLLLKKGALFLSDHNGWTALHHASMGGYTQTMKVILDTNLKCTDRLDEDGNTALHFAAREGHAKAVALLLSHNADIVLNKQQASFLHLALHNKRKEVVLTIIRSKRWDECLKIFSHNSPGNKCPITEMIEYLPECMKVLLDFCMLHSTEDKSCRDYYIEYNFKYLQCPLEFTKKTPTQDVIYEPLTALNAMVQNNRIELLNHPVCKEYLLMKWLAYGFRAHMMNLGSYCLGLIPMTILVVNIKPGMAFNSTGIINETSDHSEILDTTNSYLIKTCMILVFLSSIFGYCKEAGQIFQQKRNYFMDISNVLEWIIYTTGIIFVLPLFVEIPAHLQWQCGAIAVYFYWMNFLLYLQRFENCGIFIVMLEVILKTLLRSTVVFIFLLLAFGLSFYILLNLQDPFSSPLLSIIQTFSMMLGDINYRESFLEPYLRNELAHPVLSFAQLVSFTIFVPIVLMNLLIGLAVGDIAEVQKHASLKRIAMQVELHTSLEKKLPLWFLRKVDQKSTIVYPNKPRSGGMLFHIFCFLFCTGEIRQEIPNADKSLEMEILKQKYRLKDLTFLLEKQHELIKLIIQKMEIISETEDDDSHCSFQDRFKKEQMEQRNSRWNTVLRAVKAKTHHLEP

Structure (SMILES) | IC50 [1] [nM] | IC50 [2] [nM] | TRPA1 IC50 compared with 3-azabicyclo[3.1.0]hexene linker and cyclobutylene linker analogues
O=c1c2cccnc2cnn1Cc1nc([C@H]2[C@@H]3CN(c4cc(Cl)ccn4)C[C@@H]32)no1 [Example Compound 167, 6-((3-((1R,5S,6r)-3-(4-chloropyridin-2-yl)-3-azabicyclo[3.1.0]hexan-6-yl)-1,2,4-oxadiazol-5-yl)methyl)pyrido[2,3-d]pyridazin-5(6H)-one] | 51.1 | 46 | 
Cn1cnc2ncn(Cc3nc([C@H]4[C@@H]5CN(c6cc(Cl)c(F)cn6)C[C@@H]54)no3)c(=O)c21 [Example Compound 170, 1-((3-((1R,5S,6r)-3-(4-chloro-5-fluoropyridin-2-yl)-3-azabicyclo[3.1.0]hexan-6-yl)-1,2,4-oxadiazol-5-yl)methyl)-7-methyl-1,7-dihydro-6H-purin-6-one] | 233 | 130 | 
Cn1cnc2ncn(Cc3nc([C@H]4[C@@H]5CN(c6cccc(C#N)n6)C[C@@H]54)no3)c(=O)c21 [Example Compound 171, 6-((1R,5S,6r)-6-(5-((7-methyl-6-oxo-6,7-dihydro-1H-purin-1-yl)methyl)-1,2,4-oxadiazol-3-yl)-3-azabicyclo[3.1.0]hexan-3-yl)picolinonitrile] | 271 | 89 | 
Cn1c(=O)ccc2ncn(Cc3nc([C@H]4[C@@H]5CN(c6cc(Cl)ccn6)C[C@@H]54)no3)c(=O)c21 [Example Compound 174, 3-((3-((1R,5S,6r)-3-(4-chloropyridin-2-yl)-3-azabicyclo[3.1.0]hexan-6-yl)-1,2,4-oxadiazol-5-yl)methyl)-5-methyl-3,5-dihydropyrido[3,2-d]pyrimidine-4,6-dione] | 60.6 | 50 | 
Cn1cnc2ncn(Cc3nc([C@H]4[C@@H]5CN(c6ccnc(F)c6)C[C@@H]54)no3)c(=O)c21 [Example Compound 175, 1-((3-((1R,5S,6r)-3-(2-fluoropyridin-4-yl)-3-azabicyclo[3.1.0]hexan-6-yl)-1,2,4-oxadiazol-5-yl)methyl)-7-methyl-1,7-dihydro-6H-purin-6-one] | 420 | 73 | 
Cn1cnc2ncn(Cc3nc([C@H]4C[C@H](Oc5cccc(C#N)c5)C4)no3)c(=O)c21 [Example Compound 178, 3-((1r,3r)-3-(5-((7-methyl-6-oxo-6,7-dihydro-1H-purin-1-yl)methyl)-1,2,4-oxadiazol-3-yl)cyclobutoxy)benzonitrile] | 81.5 |  | 
Cn1cc(-c2ccc(N3C[C@@H]4[C@H](C3)[C@H]4c3noc(Cn4cnc5ncn(C)c5c4=O)n3)cc2)cn1 [Example Compound 179, 7-methyl-1-((3-((1R,5S,6r)-3-(4-(1-methyl-1H-pyrazol-4-yl)phenyl)-3-azabicyclo[3.1.0]hexan-6-yl)-1,2,4-oxadiazol-5-yl)methyl)-1,7-dihydro-6H-purin-6-one] | 134 | 67 | 
Cn1cnc2ncn(Cc3nc([C@H]4[C@@H]5CN(c6cc(F)ccn6)C[C@@H]54)no3)c(=O)c21 [Example Compound 182, 1-((3-((1R,5S,6r)-3-(4-fluoropyridin-2-yl)-3-azabicyclo[3.1.0]hexan-6-yl)-1,2,4-oxadiazol-5-yl)methyl)-7-methyl-1,7-dihydro-6H-purin-6-one] | 194 | 43 | 
O=c1c2cccnc2ncn1Cc1nc([C@H]2[C@@H]3CN(c4cc(Cl)ccn4)C[C@@H]32)no1 [Example Compound 183, 3-((3-((1R,5S,6r)-3-(4-chloropyridin-2-yl)-3-azabicyclo[3.1.0]hexan-6-yl)-1,2,4-oxadiazol-5-yl)methyl)pyrido[2,3-d]pyrimidin-4(3H)-one] | 65.1 | 52 | 
Cn1cnc2ncn(Cc3nc([C@@H]4[C@H]5Oc6c(Cl)cccc6[C@H]54)no3)c(=O)c21 [Example Compound 187, 1-((3-((1R,1 aS,6bR)-3-chloro-1a,6b-dihydro-1H-cyclopropa[b]benzofuran-1-yl)-1,2,4-oxadiazol-5-yl)methyl)-7-methyl-1,7-dihydro-6H-purin-6-one] | 763 |  | 
Cn1cnc2ncn(Cc3nc([C@H]4C[C@H](c5cccc(C#N)c5)C4)no3)c(=O)c21 [Example Compound 189, 3-((1r,3r)-3-(5-((7-methyl-6-oxo-6,7-dihydro-1H-purin-1-yl)methyl)-1,2,4-oxadiazol-3-yl)cyclobutyl)benzonitrile] | 68.2 |  | 
Cn1cnc2ncn(Cc3nc([C@H]4[C@@H]5CN(c6cccc(-c7ncco7)c6)C[C@@H]54)no3)c(=O)c21 [Example Compound 190, 7-methyl-1-((3-((1R,5S,6r)-3-(3-(oxazol-2-yl)phenyl)-3-azabicyclo[3.1.0]hexan-6-yl)-1,2,4-oxadiazol-5-yl)methyl)-1,7-dihydro-6H-purin-6-one] | 78.3 | 72 | 
Cn1cnc2ncn(Cc3nc([C@H]4C[C@H](c5cccc(F)c5)C4)no3)c(=O)c21 [Example Compound 191, 1-((3-((1r,3r)-3-(3-fluorophenyl)cyclobutyl)-1,2,4-oxadiazol-5-yl)methyl)-7-methyl-1,7-dihydro-6H-purin-6-one] | 83 |  | 
Cn1cnc2ncn(Cc3nc([C@H]4[C@@H]5CN(c6ccc(C#N)cc6)C[C@@H]54)no3)c(=O)c21 [Example Compound 192, 4-((1R,5S,6r)-6-(5-((7-methyl-6-oxo-6,7-dihydro-1H-purin-1-yl)methyl)-1,2,4-oxadiazol-3-yl)-3-azabicyclo[3.1.0]hexan-3-yl)benzonitrile] | 27.4 | 13 | 

Second part, the compound after the results:

IC50 [1] [nM] | IC50 [2] [nM] | TRPA1 IC50 compared with 3-azabicyclo[3.1.0]hexene linker and cyclobutylene linker analogues | Structure (SMILES)
50.8 |  |  | Cc1ccnc2ncn(Cc3nc([C@H]4[C@@H]5CN(c6cc(Cl)ccn6)C[C@@H]54)no3)c(=O)c12 [Example Compound 168, 3-((3-((1R,5S,6r)-3-(4-chloropyridin-2-yl)-3-azabicyclo[3.1.0]hexan-6-yl)-1,2,4-oxadiazol-5-yl)methyl)-5-methylpyrido[2,3-d]pyrimidin-4(3H)-one]
43 | 41 |  | Cn1cc(-c2cccc(N3C[C@@H]4[C@H](C3)[C@H]4c3noc(Cn4ncc5ncccc5c4=O)n3)c2)cn1 [Example Compound 169, 6-((3-((1R,5S,6r)-3-(3-(1-methyl-1H-pyrazol-4-yl)phenyl)-3-azabicyclo[3.1.0]hexan-6-yl)-1,2,4-oxadiazol-5-yl)methyl)pyrido[2,3-d]pyridazin-5(6H)-one]
26.6 | 18 |  | Cn1cnc2ncn(Cc3nc([C@@H]4CC[C@@H](c5ccc(F)cc5)C4)no3)c(=O)c21 [Example Compound 172, 1-((3-((1R,3R)-3-(4-fluorophenyl)cyclopentyl)-1,2,4-oxadiazol-5-yl)methyl)-7-methyl-1,7-dihydro-6H-purin-6-one]
3.97 |  |  | Cn1c(=O)ccc2ncn(Cc3nc([C@H]4[C@@H]5CN(c6cccc(Cl)c6)C[C@@H]54)no3)c(=O)c21 [Example Compound 173, 3-((3-((1R,5S,6r)-3-(3-chlorophenyl)-3-azabicyclo[3.1.0]hexan-6-yl)-1,2,4-oxadiazol-5-yl)methyl)-5-methyl-3,5-dihydropyrido[3,2-d]pyrimidine-4,6-dione]
24.3 |  |  | Cn1cnc2ncn(Cc3nc([C@H]4C[C@H](Oc5cccc(F)c5)C4)no3)c(=O)c21 [Example Compound 176, 1-((3-((1r,3r)-3-(3-fluorophenoxy)cyclobutyl)-1,2,4-oxadiazol-5-yl)methyl)-7-methyl-1,7-dihydro-6H-purin-6-one]
40.1 |  |  | Cn1cnc2ncn(Cc3nc([C@H]4C[C@H](Oc5ccc(F)cc5)C4)no3)c(=O)c21 [Example Compound 177, 1-((3-((1r,3r)-3-(4-fluorophenoxy)cyclobutyl)-1,2,4-oxadiazol-5-yl)methyl)-7-methyl-1,7-dihydro-6H-purin-6-one]
23.3 | 24 |  | O=c1c2cccnc2ncn1Cc1nc([C@H]2[C@@H]3C=C(c4cccc(Cl)c4)C[C@@H]32)no1 [Example Compound 180, 3-((3-((1S,5S,6R)-3-(3-chlorophenyl)bicyclo[3.1.0]hex-2-en-6-yl)-1,2,4-oxadiazol-5-yl)methyl)pyrido[2,3-d]pyrimidin-4(3H)-one]
21.8 | 21 |  | O=c1c2cccnc2ncn1Cc1nc([C@@H]2[C@H]3C=C(c4cccc(Cl)c4)C[C@H]32)no1 [Example Compound 181, 3-((3-((1R,5R,6S)-3-(3-chlorophenyl)bicyclo[3.1.0]hex-2-en-6-yl)-1,2,4-oxadiazol-5-yl)methyl)pyrido[2,3-d]pyrimidin-4(3H)-one]
8.83 | 1.8 | improved TRPA1 IC50 values | Cn1cnc2ncn(Cc3nc([C@H]4[C@@H]5C=C(c6cccc(Cl)c6)C[C@@H]54)no3)c(=O)c21 [Example Compound 184, 1-((3-((1S,5S,6R)-3-(3-chlorophenyl)bicyclo[3.1.0]hex-2-en-6-yl)-1,2,4-oxadiazol-5-yl)methyl)-7-methyl-1,7-dihydro-6H-purin-6-one]
18.5 | 7.8 | improved TRPA1 IC50 values | Cn1cnc2ncn(Cc3nc([C@@H]4[C@H]5C=C(c6cccc(Cl)c6)C[C@H]54)no3)c(=O)c21 [Example Compound 185, 1-((3-((1R,5R,6S)-3-(3-chlorophenyl)bicyclo[3.1.0]hex-2-en-6-yl)-1,2,4-oxadiazol-5-yl)methyl)-7-methyl-1,7-dihydro-6H-purin-6-one]
49.9 | 46 |  | Cn1cnc2ncn(Cc3nc([C@H]4[C@@H]5Oc6c(Cl)cccc6[C@@H]54)no3)c(=O)c21 [Example Compound 186, 1-((3-((1S,1aR,6bS)-3-chloro-1a,6b-dihydro-1H-cyclopropa[b]benzofuran-1-yl)-1,2,4-oxadiazol-5-yl)methyl)-7-methyl-1,7-dihydro-6H-purin-6-one]
